# Legend:
# [1] = test system: distress vocalisations in guinea-pig pups; test: Separation-induced vocalisation assay; format: in vivo; details: p.o.
# Method: Male and female guinea-pigs pups are housed in family groups with their mothers and littermates throughout the study. Experiments are commenced […] when the pups are 2 weeks old. Before entering an experiment, the pups are screened to ensure that a vigorous vocalisation response is reproducibly elicited following maternal separation. The pups are placed individually in an observation cage (55 cm×39 cm×19 cm) in a room physically isolated from the home cage for 15 minutes and the duration of vocalisation during this baseline period is recorded. Only animals which vocalise for longer than 5 minutes are employed for drug challenge studies (approximately 50% of available pups may fail to reach this criterion). On test days each pup receives an oral dose or an s.c. or i.p. injection of test compound or vehicle and is then immediately returned to the home cage with its mother and siblings for 30 to 60 minutes (or for up to 4 hours following an oral dose, dependent upon the oral pharmacokinetics of the test compound) before social isolation for 15 minutes as described above. The duration of vocalisation on drug treatment days is expressed as a percentage of the pre-treatment baseline value for each animal. The same subjects are retested once weekly for up to 6 weeks. Between 6 and 8 animals receive each test compound at each dose tested.
# [2] = test system: foot tapping in gerbils induced by central injection of an NK-1 agonist; test: Gerbil foot-tapping assay; format: in vivo; details: i.v.
# Excerpt: CNS-penetrant NK-1 receptor antagonists for use in the present invention can be identified by their ability to inhibit foot tapping in gerbils induced by anxiogenic agents (such as pentagastrin) or central infusion of NK-1 receptor agonists such as GR73632, or caused by aversive stimulation such as foot shock or single housing, based on the method of Rupniak & Williams, Eur. J. Pharmacol., 1994, 265, 179.
# Male or female Mongolian gerbils (35-90 g) are anaesthetised by inhalation of an isoflurane/oxygen mixture to permit exposure of the jugular vein in order to permit administration of test compounds or vehicle in an injection volume of 5 ml/kg i.v. Alternatively, test compounds may be administered orally or by subcutaneous or intraperitoneal routes. A skin incision is then made in the midline of the scalp to expose the skull. […] The duration and/or intensity of hind foot tapping is then recorded continuously for approximately 5 minutes. Alternatively, the ability of test compounds to inhibit foot tapping evoked by aversive stimulation, such as foot shock or single housing, may be studied using a similar method of quantification.
# [3] = test system: cisplatin-induced emesis in ferrets; test: Ferret emesis assay; format: in vivo; details: p.o.
# Method: Individually housed male ferrets (1.0-2.5 kg) are dosed orally by gavage with test compound. Ten minutes later they are fed with approximately 100 g of tinned cat food. At 60 minutes following oral dosing, cisplatin (10 mg/kg) is given i.v. via a jugular vein catheter inserted under a brief period of halothane anaesthesia. The catheter is then removed, the jugular vein ligated and the skin incision closed. The ferrets recover rapidly from the anaesthetic and are mobile within 10-20 minutes. The animals are observed continuously during recovery from the anaesthetic and for 4 hours following the cisplatin injection, after which time the animals are killed humanely. The numbers of retches and vomits occurring during the 4 hours after cisplatin administration are recorded by trained observers.
# ferrets = test: MC4R associated emesis in ferrets, Compound A and Compound B (Table 1); format: in vivo, ferret; details: Compound B 10 mg/kg PO; for % Emesis: ferrets; for # of Ferrets: ferrets with emesis/dosed
# Method: (§1) Food intake (FI) was monitored at 1, 2, 4, and 24, hours after dosing. Body weight (BWT) was measured at the time of dosing and at 24 hours. Any incidence of emesis or abnormal behavior by subjects was recorded. Two studies were combined to generate the data.
# [4] = Food intake in ad lib fed ferrets, Compound A and Compound B (FIG. 1); format: in vivo, ferret; details: oral, Compound B 10 mg/kg, Compound A 60 mg/kg or the combination, 1, 2, 4 and 24 hours after dosing
# Method: FIG. 1. […] All food intake data were analyzed by two-tailed T-TEST.
# as §1
smiles,measurement,setting,value
"C[C@@H](O[C@H]1OCCN(Cc2nc(=O)[nH][nH]2)[C@H]1c1ccc(F)cc1)c1cc(C(F)(F)F)cc(C(F)(F)F)c1 [2-(R)-(1-(R)-(3,5-bis(trifluoromethyl)phenyl)ethoxy)-3-(S)-(4-fluorophenyl)-4-(3-(5-oxo-1H,4H-1,2,4-triazolo)methyl)morpholine]",guinea-pig vocalisation (4 hr. pre-treatment) ID50,[1],0.73 mg/kg
same,gerbil foot-tapping (5 mins.) ID50,[2]; 5 mins.,0.36 mg/kg
same,gerbil foot-tapping (24 hrs.) ID50,[2]; 24 hrs.,0.33 mg/kg
same,ferret emesis ID90,[3],< 3 mg/kg
"C[C@@H](O[C@H]1OCCN(Cc2nn[nH]c2CN(C)C)[C@H]1c1ccc(F)cc1)c1cc(C(F)(F)F)cc(C(F)(F)F)c1 [Compound B, 2-(R)-(1-(R)-(3,5-bis(trifluoromethyl)phenyl)ethoxy)-4-(5-(dimethylamino)methyl-1,2,3-triazol-4-yl)methyl-3-(S)-(4-fluorophenyl)morpholine]",% Emesis,ferrets; 1 hour,0%
same,% Emesis,ferrets; 2 hours,0%
same,% Emesis,ferrets; 4 hours,0%
same,% Emesis,ferrets; Total,0%
same,# of Ferrets,ferrets; 1 hour,0/9
same,# of Ferrets,ferrets; 2 hours,0/9
same,# of Ferrets,ferrets; 4 hours,0/9
same,# of Ferrets,ferrets; Total,0/9
same,Food intake,[4],significantly reduced in the NK1 dose group at 24 hours only

# From patent publication US20080200376A1, “Compositions and Methods For the Treatment Of Obesity and Sexual Dysfunction” (priority 2004, published 2008)
